Laboratory results published in patent EP2583662A1, “Composition comprising a meroterpen to manage oily skin with tendency to develop acne” (priority 2011, dated 2013).

What was measured:
[1] = tested on: Propionibacterium acnes CIP A179; experiment: Minimal inhibitory concentration (CMI) in solid medium against Propionibacterium acnes; format: cell-based; conditions: single active; Wilkins-Chalgren agar, 18h at 37°C, anaerobic
Description: La détermination de la CMI des actifs à évaluer vis-à-vis de Propionibacterium acnes consiste, dans un premier temps, à préparer une gamme comportant neuf dilutions des actifs à tester. Chaque dilution est ensuite déposée en boîte de Pétri puis recouverte de gélose Wilkins-Chalgren. Après homogénéisation puis solidification, chacune des boîtes est inoculée avec une suspension calibrée (10^7 UFC/mL) de P acnes (dépôt par strie), puis les boîtes sont incubées 18h à 37°C en anaérobiose. La souche utilisée est le Propionibacterium acnes CIP A179 (origine = glande sébacée (1946), source CRBIP, Institut Pasteur, Paris).
La préparation des géloses s'effectue à J1 en ajoutant 2 mL d'eau osmosée stérile dans une boîte de Pétri (témoin négatif) ou 2 ml de chaque dilution des gammes d'actifs 10 fois concentré et 18 mL de milieu gélosé. Après solidification à température ambiante, les boites sont séchées 30 min à 37°C puis ensemencées avec la suspension bactérienne calibrée (10^7 UFC/mL) à l'aide d'une ose calibrée de 10 µL permettant de réaliser un dépôt correspondant à environ 10^4 UFC).
La lecture des boites est effectuée après 18 heures de culture à 37°C permettant de déterminer la CMI correspondant à la plus faible concentration d'actif(s) qui inhibe toute culture visible de P acnes. La présence de 1 à 3 colonies n'est pas prise en considération.
Les produits évalués sont le S (Sytenol®A, Sytheon), Z (Zinc gluconate, Azelis), seuls et les associations S + M (mannitol, IMCD/SPCI) + G (extrait glycolique de Ginkgo biloba, Greentech) et S + M + G + Z.
Le Sytenol®A qui présente un caractère lipophile est dilué dans le DMSO (solution mère à 10%) avant d'être redilué dans l'eau osmosée. Le zinc, le mannitol et l'extrait de Ginkgo sont directement dilués dans l'eau osmosée.
Les essais ont également compris des contrôles en présence du solvant DMSO ayant servi à la solubilisation de S dans l'eau.

[2] = Protection of squalene against H2O2-induced oxidation (GC-MS assay of remaining squalene); conditions: for Indice de protection (%): squalene + H2O2 for 1 hour
Description: Le but de l'étude est d'évaluer les effets d'un méroterpène, en l'occurrence le Sytenol®A, sur l'oxydation du squalène induite par du peroxyde d'hydrogène (H2O2).
Le squalène (Sigma, St Quentin Fallavier) est mis en contact avec une quantité définie de peroxyde d'hydrogène pendant 1 heure pour induire son oxydation, en présence ou non du Sytenol®A à 0.1%, 0.25% ou 0.5% (P/V). Un contrôle est réalisé avec un anti-oxydant lipophile de référence, la vitamine E, testée à 0,16% (3,8 mM), correspondant à une concentration équimolaire de Sytenol®A à 0,1%.
A l'issue de l'oxydation, une étape d'extraction est réalisée, puis les échantillons sont analysés par chromatographie en phase gazeuse couplée à une analyse par spectrométrie de masse (GC-MS). Le squalène est dosé grâce à une gamme étalon (10 µg/ml à 2500 µg/ml). La quantité de squalène oxydée est déduite des dosages du squalène. Plus les quantités de squalène dosées sont importantes, moins il a été oxydé et inversement.

## O=C(OOC(=O)c1ccccc1)c1ccccc1 [Peroxyde de Benzoyle, peroxyde de benzoyle]
[1]
  CMI: 0.008%

## vitamine E
[2]; tested at 0.16% (3.8mM)
  Indice de protection (%): 15.17%

## Zinc gluconate
[1]
  CMI: 0.12%

## C=C[C@@](C)(/C=C/c1ccc(O)cc1)CCC=C(C)C [Sytenol®A, bakuchiol]
[2]; equimolar concentration of 3,8 mM
  fois plus efficace que la vitamine E en termes de protection de l'oxydation du squalène: 2 fois
[2]; tested at 0.1% (3.9mM)
  Indice de protection (%): 30.02%
[2]; tested at 0.25% (9.75 mM)
  Indice de protection (%): 37.12%
